Source: ChEMBL document CHEMBL1201862, “PubChem BioAssay data set” (2004)
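Values below derive from 48-hour exposures of cells grown in 96-well plates, with endpoints linearly interpolated between the two concentrations bracketing the appropriate inhibition level. Abbreviation: GI50, concentration required for 50% inhibition of growth.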 Active and inactive are the calls of the source. Rule as the data show it: active = GI50 up to about 1.1 µM and inactive = higher.

Key:
Test in all cases: NCI anticancer screen, dose series, 48 h
786-0 = test system: 786-0
ACHN = test system: ACHN
CCRF-CEM = test system: CCRF-CEM
EKVX = test system: EKVX
HCT-116 = test system: HCT-116
IGROV-1 = test system: IGROV-1
MDA-N = test system: MDA-N
NCI-H226 = test system: NCI-H226
NCI-H23 = test system: NCI-H23
NCI-H522 = test system: NCI-H522
OVCAR-5 = test system: OVCAR-5
PC-3 = test system: PC-3
SF-295 = test system: SF-295
SF-539 = test system: SF-539
SK-MEL-2 = test system: SK-MEL-2
SNB-19 = test system: SNB-19
T47D = test system: T47D
TK-10 = test system: TK-10
U-251 = test system: U-251

Measured: GI50

CCCCC(/C=C\COC1CCCCO1)=C/C(=O)OCC (stereo not given)
inactive: 786-0 65.2 µM | ACHN > 100 µM | CCRF-CEM 33.8 µM | EKVX 37 µM | HCT-116 28.6 µM | IGROV-1 61.2 µM | MDA-N 63.1 µM | NCI-H226 > 100 µM | NCI-H23 > 100 µM | NCI-H522 30.5 µM | OVCAR-5 > 100 µM | PC-3 44.9 µM | SF-295 44.4 µM | SF-539 14.3 µM | SK-MEL-2 > 100 µM | SNB-19 98.2 µM | T47D 55.3 µM | TK-10 > 100 µM | U-251 44.8 µM

C=C1C(O)C[C@H](OC(C)=O)[C@]2(C)C1C(OC(C)=O)[C@]1(C(C)(C)O)CC(O)C(C)=C1[C@@H](OC(=O)c1ccccc1)C2OC(C)=O (stereo not given in full)
inactive: 786-0 > 10 µM | ACHN > 10 µM | CCRF-CEM > 10 µM | EKVX > 10 µM | HCT-116 > 10 µM | IGROV-1 > 10 µM | MDA-N > 10 µM | NCI-H226 > 10 µM | NCI-H23 > 10 µM | NCI-H522 > 10 µM | OVCAR-5 > 10 µM | PC-3 > 10 µM | SF-295 > 10 µM | SF-539 > 10 µM | SK-MEL-2 > 10 µM | SNB-19 > 10 µM | T47D > 10 µM | TK-10 > 10 µM | U-251 > 10 µM

COc1cc(O)c(C(=O)/C=C/c2ccccc2)c(OC)c1 [FLAVOKAWAIN B]
inactive: 786-0 4.62 µM | ACHN 8.73 µM | CCRF-CEM 2.27 µM | EKVX 10.4 µM | HCT-116 5.64 µM | IGROV-1 4.53 µM | MDA-N 3.78 µM | NCI-H226 4.15 µM | NCI-H23 5.97 µM | NCI-H522 2.42 µM | OVCAR-5 23.9 µM | PC-3 6.1 µM | SF-295 13 µM | SF-539 3.78 µM | SK-MEL-2 4.62 µM | SNB-19 3.47 µM | T47D 6.82 µM | TK-10 6.55 µM | U-251 4.6 µM

CCOC1OC(C)(C=C(C#N)C#N)CCC1C (stereo not given)
inactive: 786-0 25.9 µM | ACHN 37.5 µM | CCRF-CEM 30.3 µM | EKVX 33.3 µM | HCT-116 29.9 µM | IGROV-1 10.5 µM | MDA-N 47.2 µM | NCI-H226 23 µM | NCI-H23 29.7 µM | NCI-H522 15.4 µM | OVCAR-5 > 85.7 µM | PC-3 49 µM | SF-295 > 67.5 µM | SF-539 23.8 µM | SK-MEL-2 > 100 µM | SNB-19 > 57.3 µM | T47D 44.2 µM | TK-10 59.6 µM | U-251 52.7 µM

O=C(O)CCC(NC(=O)c1ccc(CNc2nc3cc(C(F)(F)F)ccc3nc2C(=O)O)cc1)C(=O)O (stereo not given)
inactive: 786-0 > 100 µM | ACHN > 100 µM | CCRF-CEM > 100 µM | EKVX > 100 µM | HCT-116 > 100 µM | IGROV-1 > 100 µM | MDA-N > 100 µM | NCI-H226 > 100 µM | NCI-H23 > 100 µM | NCI-H522 > 100 µM | OVCAR-5 > 100 µM | PC-3 > 100 µM | SF-295 > 100 µM | SF-539 > 100 µM | SK-MEL-2 > 100 µM | SNB-19 > 100 µM | T47D > 100 µM | TK-10 > 100 µM | U-251 > 100 µM

Cc1ccc(-c2nc(N/N=C/C=C/c3ccccc3)c3ccccc3n2)cc1
inactive: 786-0 30 µM | ACHN 19.1 µM | CCRF-CEM > 100 µM | EKVX 15 µM | HCT-116 26.6 µM | IGROV-1 19.2 µM | MDA-N 74.6 µM | NCI-H226 > 100 µM | NCI-H23 44.1 µM | NCI-H522 21.3 µM | OVCAR-5 17.4 µM | PC-3 28.6 µM | SF-295 23.2 µM | SF-539 55.5 µM | SK-MEL-2 24.9 µM | SNB-19 37.6 µM | T47D 60.5 µM | TK-10 20 µM | U-251 33.3 µM

O=C(O)c1ccc(C(=O)c2ccccc2)c(C(=O)O)c1
inactive: 786-0 > 100 µM | ACHN > 100 µM | CCRF-CEM > 100 µM | EKVX > 100 µM | HCT-116 > 100 µM | IGROV-1 > 100 µM | MDA-N > 100 µM | NCI-H226 > 100 µM | NCI-H23 > 100 µM | NCI-H522 > 100 µM | OVCAR-5 > 100 µM | PC-3 > 100 µM | SF-295 > 100 µM | SF-539 > 100 µM | SK-MEL-2 > 100 µM | SNB-19 > 100 µM | T47D > 100 µM | TK-10 > 100 µM | U-251 > 100 µM

O=C(O)c1ccc(C=C2Sc3ccccc3S2)cc1
inactive: 786-0 98.2 µM | ACHN 22.6 µM | CCRF-CEM 55.5 µM | EKVX 45 µM | HCT-116 48.1 µM | IGROV-1 82.8 µM | MDA-N 29 µM | NCI-H226 > 100 µM | NCI-H23 > 100 µM | NCI-H522 26.1 µM | OVCAR-5 66.1 µM | PC-3 50.7 µM | SF-295 33.5 µM | SF-539 > 100 µM | SK-MEL-2 29.4 µM | SNB-19 73.8 µM | T47D 45 µM | TK-10 75.9 µM | U-251 48.2 µM

COC(=O)[C@H](Cc1ccccc1)NC(=O)N(CCN(CCC#N)C(=O)N[C@H](C(=O)OC)C(C)C)c1ccccc1
inactive: 786-0 > 100 µM | ACHN > 100 µM | CCRF-CEM 33.7 µM | EKVX > 100 µM | HCT-116 > 100 µM | IGROV-1 57.5 µM | MDA-N > 100 µM | NCI-H226 > 100 µM | NCI-H23 > 100 µM | NCI-H522 30.3 µM | OVCAR-5 > 100 µM | PC-3 > 100 µM | SF-295 > 100 µM | SF-539 > 100 µM | SK-MEL-2 41.8 µM | SNB-19 > 100 µM | T47D 49.4 µM | TK-10 > 100 µM | U-251 > 100 µM

N#CC(C#N)=C1CCCCc2ccc([N+](=O)[O-])cc21
inactive: 786-0 17.4 µM | ACHN 93.5 µM | CCRF-CEM 40.5 µM | EKVX 46.6 µM | HCT-116 24.3 µM | IGROV-1 > 100 µM | MDA-N 51.6 µM | NCI-H226 > 100 µM | NCI-H23 > 100 µM | NCI-H522 19.4 µM | OVCAR-5 > 100 µM | PC-3 55.3 µM | SF-295 > 100 µM | SF-539 > 100 µM | SK-MEL-2 > 100 µM | SNB-19 > 100 µM | T47D 46.3 µM | TK-10 > 100 µM | U-251 76.2 µM
